Laboratory results published in US9605241B2, “Induction and stabilization of enzymatic activity in microorganisms” (Georgia State University Research Foundation, Inc., priority 2006, dated 2017).

Experiments:
asparaginase I [1] = assay: Effect of inducer and media composition on asparaginase I; type: cell-based; conditions: Rhodococcus sp. DAP 96253; inducer 1000 ppm
Method: Testing was performed to evaluate the effect on asparaginase I activity based upon the inducer used. In particular, testing was performed using asparagine, glutamine, succinonitrile, and isovaleronitrile as inducers (all added at 1000 ppm each).

asparaginase I [2] = assay: Asparaginase I production on supplemented medium; type: cell-based; conditions: asparagine and glutamine added 3.8 mM
Method: The induction of asparaginase I production in various nitrile hydratase producing microorganisms was evaluated. All strains were grown on YEMEA medium containing 7.5 g/L of urea and 10 ppm cobalt (provided as cobalt chloride) supplemented with asparagine (ASN), glutamine (GLN), or both asparagine and glutamine. The asparagine and glutamine were added 3.8 mM. As a comparative, enzyme production was also evaluated with supplementation was with acrylonitrile (AN), acrylamide (AMD) or acrylonitrile and acrylamide. Growth temperature was in the range of 26° C. to 30° C.

nitrile hydratase = assay: Nitrile hydratase induction by inducers (Example 1); type: cell-based, Rhodococcus sp., strain DAP 96253; conditions: Table 1 comparison
Method: The induction of nitrile hydratase activity and amidase activity in Rhodococcus sp., strain DAP 96253, was evaluated using multiple types of inducers (1000 ppm). Three different samples were cultured in YEMEA medium containing 10 ppm cobalt and 7.5 g/L urea and supplemented with acrylonitrile, asparagine, or glutamine. The specific nitrile hydratase activity and the specific amidase activity in each sample was evaluated, and the results are provided below in Table 1, with activities provided in units/mg cdw (cell dry weight). One unit of nitrile hydratase activity relates to the ability to convert 1 Arnol of acrylonitrile to its corresponding amide per minute, per milligram of cells (dry weight) at a of pH 7.0 and a temperature of 30° C. One unit of amidase activity relates to the ability to convert […] of acrylamide to its corresponding acid per minute, per milligram of cells (dry weight) pH of 7.0 and a temperature of 30° C.

SMILES	ability to induce asparaginase I activity (in words) (asparaginase I [1])	ability to induce nitrile hydratase activity compared with acrylonitrile (nitrile hydratase)	also measured
N#CCCC#N [Succinonitrile, succinonitrile]	showed an ability to induce asparaginase I activity		
NC(=O)CC[C@H](N)C(=O)O [Glutamine, glutamine]	showed an ability to induce asparaginase I activity	exceeds the ability of acrylonitrile to induce such activity	Asparaginase I Level Based on Growth Medium Supplementation (asparaginase I [2]; Pseudomonas chloroaphis ATCC 43051, 30 °C): No
C=CC#N [Acrylonitrile, acrylonitrile]			Asparaginase I Level Based on Growth Medium Supplementation (asparaginase I [2]; Pseudomonas chloroaphis ATCC 13985, 26 °C): 2 Units/mg cdw; Asparaginase I Level Based on Growth Medium Supplementation (asparaginase I [2]; Rhodococcus rhodochrous DAP 96622 ATCC 55898, 26 °C): 8.2 Units/mg cdw; Asparaginase I Level Based on Growth Medium Supplementation (asparaginase I [2]; Rhodococcus sp. DAP 96253 ATCC 55899, 30 °C): 7.8 Units/mg cdw
NC(=O)C[C@H](N)C(=O)O [Asparagine, asparagine]		exceeds the ability of acrylonitrile to induce such activity	
